Test results as given in patent US20150105252A1, “SUBSTITUTED PYRAZOLES AS HERBICIDES” (E I DU PONT DE NEMOURS AND COMPANY, priority 2013, published 2015).

What was measured:
rice = experiment: Test B flood; format: in vivo, Oryza sativa; conditions: 250 g ai/ha, visual rating on 0 to 100 scale (0 no effect, 100 complete control), 13 to 15 days
Outline: (§1)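 Paddy-water application: seedlings at 2-leaf stage, flood depth 3 cm maintained for the test duration. Evaluation after 13–15 days in the greenhouse by eye relative to controls; 0–100 scale.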

lambsquarters = experiment: Test C postemergence; format: in vivo, Chenopodium album; conditions: for Lambsquarters plant response rating: scale 0 to 100
Outline: (§2)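 Postemergence values come from plants sprayed at the 1- to 4-leaf stage (2–18 cm) in peat moss–vermiculite medium; preemergence values from seeds treated in a loam–sand blend. Both evaluated visually against controls after 13–15 greenhouse days, scale 0–100.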

ragweed = experiment: Test C preemergence; format: in vivo, Ambrosia elation
Outline: as §2

galium = experiment: Test C preemergence; format: in vivo, Galium aparine
Outline: as §2

wheat = experiment: Test A postemergence; format: in vivo, Triticum aestivum
Outline: (§3)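 Greenhouse test in loam soil/sand blend; compounds formulated in non-phytotoxic solvent with surfactant, applied as preemergence directed soil spray or postemergence to plants 2–10 cm tall at one- to two-leaf stage. Injury rated visually versus untreated controls after approximately 10 days on a 0 (no effect) to 100 (complete control) scale.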

sedge, umbrella = experiment: Test B flood; format: in vivo, Cyperus difformis; conditions: 250 g ai/ha, visual rating on 0 to 100 scale (0 no effect, 100 complete control), 13 to 15 days
Outline: as §1

corn = experiment: Test C preemergence; format: in vivo, Zea mays
Outline: as §2

crabgrass, large = experiment: Test C postemergence; format: in vivo, Digitaria sanguinalis; conditions: for Crabgrass, Large plant response rating: scale 0 to 100
Outline: as §2

ryegrass, Italian = experiment: Test C postemergence; format: in vivo, Lolium multiflorum; conditions: for Ryegrass, Italian plant response rating / Plant response rating, Ryegrass, Italian: postemergence; for Ryegrass, Italian plant response rating: 62 g ai/ha, scale 0 to 100
Outline: as §2

kochia = experiment: Test C postemergence; format: in vivo, Kochia scoparia; conditions: for Kochia plant response rating: scale 0 to 100
Outline: as §2

pigweed = experiment: Test A preemergence; format: in vivo, Amaranthus retroflexus; conditions: 0 to 100 scale
Outline: as §3

[1] = postemergence, 125 g ai/ha, scale 0 to 100, 0 no effect, 100 complete control
[2] = Preemergence, 16 g ai/ha, scale 0 to 100
[3] = preemergence, 31 g ai/ha, scale 0 to 100 (0 no effect, 100 complete control), 13 to 15 days
[4] = preemergence, 62 g ai/ha, 13 to 15 days, scale 0 to 100, 0 = no effect, 100 = complete control
[5] = preemergence, 125 g ai/ha, scale 0 to 100, 0 is no effect, 100 is complete control
[6] = Postemergence, 500 g ai/ha, visual rating after approx. 10 days, 0 to 100 scale (0 no effect, 100 complete control)
[7] = postemergence, 125 g ai/ha, about 10 days, visual rating on 0 to 100 scale (0 no effect, 100 complete control)
[8] = 125 g ai/ha, scale 0 to 100, 0 no effect, 100 complete control
[9] = Preemergence, 500 g ai/ha, 0 no effect, 100 complete control
[10] = preemergence, 125 g ai/ha, visual injury, approx. 10 days
[11] = Postemergence, 31 g ai/ha, visually evaluated after 13 to 15 days
[12] = postemergence, 250 g ai/ha, scale 0 to 100 (0 no effect, 100 complete control)

Row | SMILES | Plant response rating, Rice (rice) | Lambsquarters plant response rating (lambsquarters; postemergence, 62 g ai/ha) | Plant response rating, Lambsquarters (lambsquarters; [1]) | Ragweed plant response rating (ragweed; [3]) | Plant response rating, Ragweed (ragweed; [4]) | Ragweed plant response rating (ragweed; [5]) | Galium plant response rating (galium; [3]) | Plant response rating, Galium (galium; [4]) | Galium plant response rating (galium; [5]) | Wheat plant response rating (wheat; [6]) | Wheat plant response rating (wheat; [7]) | Plant response rating, Sedge, Umbrella (sedge, umbrella) | Corn plant response rating (corn; [3]) | Plant response rating, Corn (corn; [4]) | Corn plant response rating (corn; [5]) | Crabgrass, Large plant response rating (crabgrass, large; postemergence, 62 g ai/ha) | Plant response rating, Crabgrass, Large (crabgrass, large; [1]) | Ryegrass, Italian plant response rating (ryegrass, Italian) | Plant response rating, Ryegrass, Italian (ryegrass, Italian; [8]) | Kochia plant response rating (kochia; postemergence, 62 g ai/ha) | further results
1 | CCCNC(=O)c1cc(CC)n(Cc2ccnc(C(F)(F)F)c2)n1 [Compound 75] | 35 | 85 | 90 | 90 | 90 | 100 | 100 | 100 | 100 | 90 | 80 | 85 | 60 | 98 | 100 | 25 | 80 | 5 | 10 | 60 | Plant response rating (scale of 0 to 100), Lambsquarters (lambsquarters; Postemergence, 16 g ai/ha): 70; Lambsquarters plant response rating (lambsquarters; Postemergence, 31 g ai/ha): 70; Plant response rating, Ragweed (ragweed; [2]): 70; Plant response rating, Galium (galium; [2]): 90; Plant response rating, Corn (corn; [2]): 10; Plant response rating (scale of 0 to 100), Crabgrass, Large (crabgrass, large; Postemergence, 16 g ai/ha): 20; Crabgrass, Large plant response rating (crabgrass, large; Postemergence, 31 g ai/ha): 20; Plant response rating (scale of 0 to 100), Ryegrass, Italian (ryegrass, Italian; Postemergence, 16 g ai/ha): 5; Plant response rating (scale of 0 to 100), Kochia (kochia; Postemergence, 16 g ai/ha): 30; Kochia plant response rating (kochia; Postemergence, 31 g ai/ha): 60; Plant response rating, Kochia (kochia; [1]): 90; Pigweed plant response rating (pigweed; [9]): 100; Pigweed plant response rating (pigweed; [10]): 100
2 | CCc1cc(C(=O)NC2CC2)nn1Cc1ccnc(C(F)(F)F)c1 [Compound 76] | 20 | 75 | 85 | 90 | 100 | 100 | 98 | 100 | 100 | 90 | 80 | 80 | 40 | 80 | 100 | 10 | 70 | 5 | 5 | 90 | Plant response rating (scale of 0 to 100 where 0 is no effect and 100 is complete control), Lambsquarters (lambsquarters; [11]): 75; Plant response rating, Lambsquarters (lambsquarters; [12]): 85; Plant response rating (scale of 0 to 100), Ragweed (ragweed; Preemergence, 250 g ai/ha): 100; Plant response rating (scale of 0 to 100), Galium (galium; Preemergence, 250 g ai/ha): 100; Plant response rating (scale of 0 to 100), Corn (corn; Preemergence, 250 g ai/ha): 100; Plant response rating (scale of 0 to 100 where 0 is no effect and 100 is complete control), Crabgrass, Large (crabgrass, large; [11]): 5; Plant response rating, Crabgrass, Large (crabgrass, large; [12]): 70; Plant response rating (scale of 0 to 100 where 0 is no effect and 100 is complete control), Ryegrass, Italian (ryegrass, Italian; [11]): 5; Plant response rating, Ryegrass, Italian (ryegrass, Italian; 250 g ai/ha, scale 0 to 100 (0 no effect, 100 complete control)): 10; Plant response rating (scale of 0 to 100 where 0 is no effect and 100 is complete control), Kochia (kochia; [11]): 75; Plant response rating, Kochia (kochia; [12]): 90; Plant response rating, Kochia (kochia; [1]): 90; Pigweed plant response rating (pigweed; [9]): 100; Pigweed plant response rating (pigweed; [10]): 100
